Literature values as cited in patent US20070098676A1, “FUNCTIONALLY DIVERSE MACROMOLECULES AND THEIR SYNTHESIS” (priority 2005, published 2007).

Test system: RSV
Settings: study conducted in 2001 (Huntley et al., 2002)

**Q.** For `NC(=O)CN(CC(N)=O)S(=O)(=O)c1cccc(Nc2nc(Nc3cccc(S(=O)(=O)N(CC(N)=O)CC(N)=O)c3)nc(Nc3ccc(-c4ccc(Nc5nc(Nc6cccc(S(=O)(=O)N(CC(N)=O)CC(N)=O)c6)nc(Nc6cccc(S(=O)(=O)N(CC(N)=O)CC(N)=O)c6)n5)cc4S(=O)(=O)O)c(S(=O)(=O)O)c3)n2)c1` [RFI-641], which “inhibition of RSV” value is on record?
**A.** potent and selective inhibitor of RSV
